Data from article PMC12741935 (Alzheimer's & Dementia, 2025).

Experiments:
[1] = tested on: 14 DIV hippocampal neurons; test: oAβ-induced dendrite degeneration (MAP2 dendrite length, number, complexity) in cultured hippocampal neurons; assay type: cell-based, mouse
Description: (§1) For in vitro study, all animal procedures were conducted in accordance with the National Institutes of Health Guide for the Care and Use of Laboratory Animals using protocols approved by the institutional animal care and use committee at Stanford University. Timed pregnant C57BL/6 mice (Strain code: 027) were purchased from Charles River Laboratories and delivered on embryonic day 15 (E15), after which E16 embryos were used for primary hippocampal cultures. Primary embryonic mouse hippocampal neuron cultures were plated on poly‐D‐lysine‐coated (10 µg/mL) glass cover slips at 40,000 to 50,000 cells per well in 12‐well plates (Corning Life Sciences). Cells were seeded in plating medium DMEM/F12 supplemented with 10% fetal bovine serum and 1 × penicillin/streptomycin (PS) for 2 hours. Medium was then changed to B‐27 Plus Neuronal Culture System (Invitrogen) supplemented with PS, and 2 mM glutamine.
(§2) Immunofluorescence was performed as described previously.[24] Briefly, cultured hippocampal neurons were fixed in 4% formaldehyde for 20 minutes, permeabilized for 6 minutes in 80% ice‐cold methanol, and incubated with primary antibodies at 4°C overnight. Primary antibodies used were rabbit polyclonal MAP2 antibody for labeling dendrites (1:1000, #8707, Cell Signaling) and mouse monoclonal drebrin antibody for labeling dendritic spines (1:300; Cat#ADI‐NBA‐110, Enzo). Secondary antibodies consisted of donkey antirabbit or antimouse conjugated with either FITC or Cy3 (1:400; Jackson ImmunoResearch Laboratories, Inc.).
The cultured hippocampal neurons were imaged using an oil‐based 63x objective on a Leica Stellaris 5 confocal microscope. The cell nucleus was stained with DAPI and imaged at a wavelength of 405 nm (blue channel), the dendrites stained by MAP2 were imaged at 488 nm wavelength (green channel), and the drebrin‐stained spines were imaged at a wavelength of 561 nm (red channel). Z‐stack images of neurons were acquired at a 1024 × 1024 resolution, a zoom factor of 1.0, and a z‐step size of 0.5 µm. The number of steps for every z‐stack picture of a neuron were determined by the size of the neuron in the z‐plane, to ensure that the entirety of a neuron is captured in the picture. The areas to be imaged were selected systematically, starting from the top‐left region to proceeding to the bottom‐right region of a coverslip. For imaging, preference was given to field of views containing isolated neurons versus clustered neurons.
For quantification of drebrin‐positive spines in vitro, the images were analyzed using Imaris 9.3 software. Each image consisted of one major neuron and the “filaments” option in Imaris was applied to manually trace along the dendrites of every neuron, by placing starting and seed points at the beginning and along the length of the dendrites, respectively. The largest dendrite diameter (i.e., Starting Point) was set at 9.00 µm threshold while the thinnest dendrite diameter (i.e., Seed Point) was set at 1.00 µm threshold. After manually tracing the dendrites, the spines along the dendrites were assessed using the automatic “spine detection” function in Imaris. The thinnest spine diameter was set at 0.80 µm threshold while the maximum spine length was set at 5.00 µm. The spine density (number of spines/dendrite length) was then calculated for each neuron. All image acquisition and quantification were performed in a blind manner. For in vitro quantification of dendrite degeneration, Neurolucida (MBF Biosciences) in the manual mode was used to measure the total dendritic length, numbers of dendrites, and dendritic complexity for each neuron.

[2] = tested on: 14 DIV mouse hippocampal neurons; test: oTau-induced spine loss: drebrin-positive spine density in cultured hippocampal neurons; assay type: cell-based; settings: oTau 50 nM + inhibitor 24 h vs oTau alone; NVS-PAK1-1 10 nM, NVS-PAK1-C 10 nM, AZ13705339 1 nM, G5555 5 nM
Description: as §1, §2
The cultured hippocampal neurons were imaged using an oil‐based 63x objective on a Leica Stellaris 5 confocal microscope. The cell nucleus was stained with DAPI and imaged at a wavelength of 405 nm (blue channel), the dendrites stained by MAP2 were imaged at 488 nm wavelength (green channel), and the drebrin‐stained spines were imaged at a wavelength of 561 nm (red channel). […] The number of steps for every z‐stack picture of a neuron were determined by the size of the neuron in the z‐plane, to ensure that the entirety of a neuron is captured in the picture. […]
For quantification of drebrin‐positive spines in vitro, the images were analyzed using Imaris 9.3 software. […] After manually tracing the dendrites, the spines along the dendrites were assessed using the automatic “spine detection” function in Imaris. […] The spine density (number of spines/dendrite length) was then calculated for each neuron. All image acquisition and quantification were performed in a blind manner. For in vitro quantification of dendrite degeneration, Neurolucida (MBF Biosciences) in the manual mode was used to measure the total dendritic length, numbers of dendrites, and dendritic complexity for each neuron.

[3] = tested on: kinome; broad panel of proteases, receptors, and bromodomains; settings: cited from earlier work

SMILES: CC(C)NC(=O)N1CC[C@H](NC2=Nc3cc(F)ccc3N(CC(F)F)c3ccc(Cl)cc32)C1 [NVS‐PAK1‐1, (S)‐3‐([2‐chloro‐5‐(2,2‐difluoroethyl)‐8‐fluoro‐5H‐dibenzo[b,e][1,4]diazepin‐11‐yl]amino)‐N‐isopropylpyrrolidine‐1‐carboxamide]
- dendritic complexity ([1]; oAβ 1 µM + 10 nM, 24 h, vs oAβ alone): preservation of complexity
- dendrite number per neuron ([1]; oAβ 1 µM + inhibitor 24 h vs oAβ alone, NVS-PAK1-1 10 nM, AZ 1 nM, G 5 nM): significantly increased dendrite number per neuron
- total dendrite length per neuron ([1]; oAβ 1 µM + inhibitor 24 h vs oAβ alone, NVS-PAK1-1 10 nM, PAK1-C 10 nM, AZ 1 nM, G 5 nM): preserved dendrite length
- drebrin-stained spine density (spine counts per µm of dendritic length) [2]: significantly higher spine counts
- cross-reactivity with a broad panel of proteases, receptors, and bromodomains [3]: no significant cross‐reactivity
